Laboratory results published in patent US20260234660A1, “TREATMENT OF MUSCLE RELATED DISORDERS WITH ANTI-HUMAN CACNG1 ANTIBODIES” (Regeneron Pharmaceuticals, Inc., priority 2023, published 2026).
Counter-ions that a name gives are not always drawn.

Tested on: human myotubes
Assay: Acetylcholine-induced calcium flux assay in human myotubes (FLIPR)
Type: cell-based
Conditions: 20 μM nicardipine, positive control for calcium blocking
Description: CACNG1 is the γ1 subunit of the skeletal muscle specific L-type calcium channel, (dihydropyridine receptor), though genetic deletion of CACNG1 appears to have no major impact on skeletal muscle function. To determine whether antibodies that bind CACNG1 impact muscle function, a calcium flux assay was performed on human myotubes that were incubated with CACNG1 antibodies to determine whether these antibodies affect acetylcholine-induced calcium release.
Human skeletal myoblasts (Cook Myosite, Inc.) were plated at 10,000 cells/well of a 96-well plate and were differentiated for 7 days into myotubes. On the final day of differentiation, media was replaced with 50 μL of FLIPR calcium 5 dye with probenecid (Invitrogen) and 50 uL of assay buffer (0.1% BSA-DMEM) per well. CACNG1 and isotype control antibodies were serial diluted in assay buffer and added to the cells and incubated at 37° C. in a 5% CO2 incubator for 1 hour prior to the calcium flux assay. Nicardipine hydrochloride (Sigma) was added to untreated wells to serve as a control for calcium channel blockade. After 1 hour, acetylcholine (Sigma) was added at a 20 uM final concentration to induce myotube calcium release, and plates were assayed on a FLIPR Tetra (Molecular Devices, LLC).

Compound: COC(=O)C1=C(C)NC(C)=C(C(=O)OCCN(C)Cc2ccccc2)C1c1cccc([N+](=O)[O-])c1 (stereo not shown) [nicardipine, Nicardipine hydrochloride, reference compound]
- effect on human myotube calcium release: substantially reduced human myotube calcium release
